# Measured values from the OPERA property sets (Mansouri et al. 2018).
# Settings: 25 °C
row,SMILES,solubility [µM]
1,CCCCCC,110
2,C#CC,90800
3,CCCC,1050
4,C=CC(=C)C,9340
5,C1CCCCC1,654
6,CC1CCCC1,499
7,C=CC,4750
8,C=CCC,3940
9,C=C,4670
10,Cc1ccc(C)c(C)c1,474
11,C=CC=C,13600
12,C1CCCCCCC1,70.4
